{
  "source": "ChEMBL document CHEMBL3045083",
  "about": "“Insect growth regulators as potential insecticides to control olive fruit fly (Bactrocera oleae Rossi): insect toxicity bioassays and molecular docking approach” (2013)",
  "type_in_all_cases": "functional",
  "key": {"Bactrocera oleae [1]": {"system": "Bactrocera oleae", "experiment": "Insecticidal activity against Bactrocera oleae assessed as insect mortality after 24 hr"}, "Bactrocera oleae [2]": {"system": "Bactrocera oleae", "experiment": "Insecticidal activity against Bactrocera oleae assessed as insect mortality at 96 mg Ai/L applied through oral ingestion measured after 24 hr (reference value: 0%)"}, "Bactrocera oleae [3]": {"system": "Bactrocera oleae", "experiment": "Insecticidal activity against Bactrocera oleae assessed as insect mortality at 96 mg Ai/L applied through oral ingestion measured after 7 days (reference value: 2.5 +/- 2.5%)", "conditions": "168 h"}, "Bactrocera oleae [4]": {"system": "Bactrocera oleae", "experiment": "Insecticidal activity against Bactrocera oleae assessed as insect mortality at 96 mg Ai/L applied through residual contact on glass surfaces measured after 7 days (reference value: 4.0 +/- 4.0%)", "conditions": "168 h"}, "Bactrocera oleae [5]": {"system": "Bactrocera oleae", "experiment": "Insecticidal activity against Bactrocera oleae assessed as insect survival lifespan at 96 mg Ai/L applied through oral ingestion (reference value: 79.7 +/- 12.2 days)"}, "Bactrocera oleae [6]": {"system": "Bactrocera oleae", "experiment": "Insecticidal activity against Bactrocera oleae assessed as insect mortality at 96 mg Ai/L applied through residual contact on glass surfaces measured after 15 days (reference value: 45.8 +/- 16.3%)", "conditions": "360 h"}, "Bactrocera oleae [7]": {"system": "Bactrocera oleae", "experiment": "Insecticidal activity against Bactrocera oleae assessed as insect mortality at 96 mg Ai/L applied through oral ingestion measured after 15 days (reference value: 2.5 +/- 2.5%)", "conditions": "360 h"}, "Bactrocera oleae [8]": {"system": "Bactrocera oleae", "experiment": "Insecticidal activity against Bactrocera oleae assessed as insect mortality at 96 mg Ai/L applied through residual contact on glass surfaces measured after 24 hr (reference value: 2.0 +/- 2.0%)"}, "Bactrocera oleae [9]": {"system": "Bactrocera oleae", "experiment": "Insecticidal activity against Bactrocera oleae assessed as insect mortality at 180 mg Ai/L applied through oral ingestion measured after 15 days (reference value: 2.5 +/- 2.5%)", "conditions": "360 h"}, "Bactrocera oleae [10]": {"system": "Bactrocera oleae", "experiment": "Insecticidal activity against Bactrocera oleae assessed as insect mortality at 180 mg Ai/L applied through oral ingestion measured after 7 days (reference value: 2.5 +/- 2.5%)", "conditions": "168 h"}, "Bactrocera oleae [11]": {"system": "Bactrocera oleae", "experiment": "Insecticidal activity against Bactrocera oleae assessed as insect mortality at 180 mg Ai/L applied through residual contact on glass surfaces measured after 24 hr (reference value: 2.0 +/- 2.0%)"}, "Bactrocera oleae [12]": {"system": "Bactrocera oleae", "experiment": "Insecticidal activity against Bactrocera oleae assessed as insect mortality at 180 mg Ai/L applied through residual contact on glass surfaces measured after 7 days (reference value: 4.0 +/- 4.0%)", "conditions": "168 h"}, "Bactrocera oleae [13]": {"system": "Bactrocera oleae", "experiment": "Insecticidal activity against Bactrocera oleae assessed as insect mortality at 180 mg Ai/L applied through oral ingestion measured after 24 hr (reference value: 0%)"}, "Bactrocera oleae [14]": {"system": "Bactrocera oleae", "experiment": "Insecticidal activity against Bactrocera oleae assessed as insect mortality at 180 mg Ai/L applied through residual contact on glass surfaces measured after 15 days (reference value: 45.8 +/- 16.3%)", "conditions": "360 h"}, "Bactrocera oleae [15]": {"system": "Bactrocera oleae", "experiment": "Insecticidal activity against Bactrocera oleae assessed as insect survival lifespan at 180 mg Ai/L applied through oral ingestion (reference value: 79.7 +/- 12.2 days)"}, "Anastrepha suspensa [16]": {"system": "Anastrepha suspensa", "experiment": "Insecticidal activity against Anastrepha suspensa assessed as insect mortality administered through diet ingestion measured after 12 to 14 days"}, "Anastrepha suspensa [17]": {"system": "Anastrepha suspensa", "experiment": "Insecticidal activity against Anastrepha suspensa assessed as reduction in egg viability administered through diet ingestion measured after 8 to 10 days"}},
  "data": [
    {"molecule": "CC[C@H]1CCC[C@H](O[C@H]2CC[C@H](N(C)C)[C@@H](C)O2)[C@@H](C)C(=O)C2=C[C@@H]3[C@@H](C=C(C)[C@@H]4C[C@@H](O[C@@H]5O[C@@H](C)[C@H](OC)[C@@H](OC)[C@H]5OC)C[C@@H]34)[C@@H]2CC(=O)O1.CC[C@H]1CCC[C@H](O[C@H]2CC[C@H](N(C)C)[C@@H](C)O2)[C@@H](C)C(=O)C2=C[C@@H]3[C@@H](C=C[C@@H]4C[C@@H](O[C@@H]5O[C@@H](C)[C@H](OC)[C@@H](OC)[C@H]5OC)C[C@@H]34)[C@@H]2CC(=O)O1", "values": [
      {"measurement": "mortality", "setting": "Bactrocera oleae [1]", "value": 62, "unit": "%"}
    ]},
    {"molecule": "COc1cccc(C(=O)NN(C(=O)c2cc(C)cc(C)c2)C(C)(C)C)c1C", "note": "[METHOXYFENOZIDE]", "values": [
      {"measurement": "mortality at 96 µg/mL", "setting": "Bactrocera oleae [2]", "value": 2.5, "unit": "%"},
      {"measurement": "mortality at 96 µg/mL", "setting": "Bactrocera oleae [3]", "value": 2.5, "unit": "%"},
      {"measurement": "mortality at 96 µg/mL", "setting": "Bactrocera oleae [4]", "value": 0, "unit": "%"},
      {"measurement": "Survival", "setting": "Bactrocera oleae [5]", "value": 8.6, "unit": "days"},
      {"measurement": "mortality at 96 µg/mL", "setting": "Bactrocera oleae [6]", "value": 49.1, "unit": "%"},
      {"measurement": "mortality at 96 µg/mL", "setting": "Bactrocera oleae [7]", "value": 2.5, "unit": "%"},
      {"measurement": "mortality at 96 µg/mL", "setting": "Bactrocera oleae [8]", "value": 0, "unit": "%"}
    ]},
    {"molecule": "CC(C)(C)N(NC(=O)c1ccccc1)C(=O)c1ccccc1", "note": "[RH-5849]", "values": [
      {"measurement": "mortality at 180 µg/mL", "setting": "Bactrocera oleae [9]", "value": 98.2, "unit": "%"},
      {"measurement": "mortality at 180 µg/mL", "setting": "Bactrocera oleae [10]", "value": 31.8, "unit": "%"},
      {"measurement": "mortality at 180 µg/mL", "setting": "Bactrocera oleae [11]", "value": 0, "unit": "%"},
      {"measurement": "mortality at 180 µg/mL", "setting": "Bactrocera oleae [12]", "value": 86, "unit": "%"},
      {"measurement": "mortality at 180 µg/mL", "setting": "Bactrocera oleae [13]", "value": 0, "unit": "%"},
      {"measurement": "mortality at 180 µg/mL", "setting": "Bactrocera oleae [14]", "value": 100, "unit": "%"},
      {"measurement": "Survival", "setting": "Bactrocera oleae [15]", "value": 8.7, "unit": "days"},
      {"measurement": "mortality", "setting": "Anastrepha suspensa [16]", "value": ">75", "unit": "%"},
      {"measurement": "Activity", "setting": "Anastrepha suspensa [17]", "value": 60, "unit": "%"}
    ]},
    {"molecule": "CCc1ccc(C(=O)NN(C(=O)c2cc(C)cc(C)c2)C(C)(C)C)cc1", "note": "[TEBUFENOZIDE]", "values": [
      {"measurement": "mortality at 180 µg/mL", "setting": "Bactrocera oleae [9]", "value": 0, "unit": "%"},
      {"measurement": "mortality at 180 µg/mL", "setting": "Bactrocera oleae [10]", "value": 0, "unit": "%"},
      {"measurement": "mortality at 180 µg/mL", "setting": "Bactrocera oleae [11]", "value": 0, "unit": "%"},
      {"measurement": "mortality at 180 µg/mL", "setting": "Bactrocera oleae [12]", "value": 18, "unit": "%"},
      {"measurement": "mortality at 180 µg/mL", "setting": "Bactrocera oleae [13]", "value": 0, "unit": "%"},
      {"measurement": "mortality at 180 µg/mL", "setting": "Bactrocera oleae [14]", "value": 58, "unit": "%"},
      {"measurement": "Survival", "setting": "Bactrocera oleae [15]", "value": 66.9, "unit": "days"}
    ]}
  ]
}
